Measurements taken from PubChem BioAssay (NCI).
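Compound exposure: 48 hours, 5 concentrations, 96-well plates. TGI is the concentration that stops growth completely.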

Assays:
Test in all cases: NCI tumour cell line growth inhibition, 48 h
BT-549 breast = system: BT-549 breast
HS 578T breast = system: HS 578T breast
CAKI-1 renal = system: CAKI-1 renal
NCI-H522 lung = system: NCI-H522 lung
M14 melanoma = system: M14 melanoma
PC-3 prostate = system: PC-3 prostate
MALME-3M melanoma = system: MALME-3M melanoma
MDA-MB-231 breast = system: MDA-MB-231 breast
LOX IMVI melanoma = system: LOX IMVI melanoma
MDA-MB-435 = system: MDA-MB-435
SF-539 CNS = system: SF-539 CNS
HT29 colon = system: HT29 colon
T-47D breast = system: T-47D breast
SW-620 colon = system: SW-620 colon
A498 renal = system: A498 renal
CCRF-CEM leukemia = system: CCRF-CEM leukemia
ACHN renal = system: ACHN renal
HL-60(TB) leukemia = system: HL-60(TB) leukemia
SK-OV-3 ovarian = system: SK-OV-3 ovarian
HOP-92 NSCLC = system: HOP-92 NSCLC
MCF7 breast = system: MCF7 breast
RPMI-8226 leukemia = system: RPMI-8226 leukemia
SK-MEL-2 melanoma = system: SK-MEL-2 melanoma
HCT-15 colon = system: HCT-15 colon
SF-295 CNS = system: SF-295 CNS
SK-MEL-28 melanoma = system: SK-MEL-28 melanoma
U251 CNS = system: U251 CNS
HCT-116 colon = system: HCT-116 colon
NCI/ADR-RES ovarian = system: NCI/ADR-RES ovarian
HCC-2998 colon = system: HCC-2998 colon
A549 NSCLC = system: A549 NSCLC
K-562 leukemia = system: K-562 leukemia
SNB-19 CNS = system: SNB-19 CNS
SR leukemia = system: SR leukemia
TK-10 renal = system: TK-10 renal
OVCAR-8 ovarian = system: OVCAR-8 ovarian
UO-31 renal = system: UO-31 renal
OVCAR-4 ovarian = system: OVCAR-4 ovarian
NCI-H460 lung = system: NCI-H460 lung
COLO 205 colon = system: COLO 205 colon
UACC-257 melanoma = system: UACC-257 melanoma
NCI-H23 lung = system: NCI-H23 lung
786-0 renal = system: 786-0 renal
SF-268 CNS = system: SF-268 CNS
MDA-N = system: MDA-N
KM12 colon = system: KM12 colon
MOLT-4 leukemia = system: MOLT-4 leukemia
SK-MEL-5 melanoma = system: SK-MEL-5 melanoma
IGROV1 ovarian = system: IGROV1 ovarian
OVCAR-5 ovarian = system: OVCAR-5 ovarian
NCI-H226 lung = system: NCI-H226 lung
HOP-62 NSCLC = system: HOP-62 NSCLC
SN12C renal = system: SN12C renal
OVCAR-3 ovarian = system: OVCAR-3 ovarian
EKVX NSCLC = system: EKVX NSCLC
UACC-62 melanoma = system: UACC-62 melanoma
DU-145 prostate = system: DU-145 prostate
RXF 393 renal = system: RXF 393 renal
SNB-75 CNS = system: SNB-75 CNS

**Q.** How did the TGI (BT-549 breast) turn out when `Cc1n[nH]c(=O)n1/N=C/c1cccnc1` was run?
**A.** > 100 µM

**Q.** What about the TGI (HS 578T breast) of the same molecule?
**A.** > 100 µM

**Q.** And the TGI (CAKI-1 renal)?
**A.** > 100 µM

**Q.** And the TGI (NCI-H522 lung)?
**A.** > 100 µM

**Q.** And the TGI (M14 melanoma)?
**A.** > 100 µM

**Q.** What about the TGI (PC-3 prostate) of the same molecule?
**A.** > 100 µM

**Q.** And the TGI (MALME-3M melanoma)?
**A.** > 100 µM

**Q.** What about the TGI (MDA-MB-231 breast) of the same molecule?
**A.** > 100 µM

**Q.** And the TGI (LOX IMVI melanoma)?
**A.** > 100 µM

**Q.** What about the TGI (MDA-MB-435) of the same molecule?
**A.** > 100 µM

**Q.** And the TGI (SF-539 CNS)?
**A.** > 100 µM

**Q.** What about the TGI (HT29 colon) of the same molecule?
**A.** > 100 µM

**Q.** And the TGI (T-47D breast)?
**A.** > 100 µM

**Q.** What about the TGI (SW-620 colon) of the same molecule?
**A.** > 100 µM

**Q.** What about the TGI (A498 renal) of the same molecule?
**A.** > 100 µM

**Q.** And the TGI (CCRF-CEM leukemia)?
**A.** > 100 µM

**Q.** And the TGI (ACHN renal)?
**A.** > 100 µM

**Q.** What about the TGI (HL-60(TB) leukemia) of the same molecule?
**A.** > 100 µM

**Q.** And the TGI (SK-OV-3 ovarian)?
**A.** > 100 µM

**Q.** And the TGI (HOP-92 NSCLC)?
**A.** > 100 µM

**Q.** What about the TGI (MCF7 breast) of the same molecule?
**A.** > 100 µM

**Q.** And the TGI (RPMI-8226 leukemia)?
**A.** > 100 µM

**Q.** What about the TGI (SK-MEL-2 melanoma) of the same molecule?
**A.** > 100 µM

**Q.** And the TGI (HCT-15 colon)?
**A.** > 100 µM

**Q.** And the TGI (SF-295 CNS)?
**A.** > 100 µM

**Q.** And the TGI (SK-MEL-28 melanoma)?
**A.** > 100 µM

**Q.** And the TGI (U251 CNS)?
**A.** > 100 µM

**Q.** What about the TGI (HCT-116 colon) of the same molecule?
**A.** > 100 µM

**Q.** And the TGI (NCI/ADR-RES ovarian)?
**A.** > 100 µM

**Q.** And the TGI (HCC-2998 colon)?
**A.** > 100 µM

**Q.** And the TGI (A549 NSCLC)?
**A.** > 100 µM

**Q.** And the TGI (K-562 leukemia)?
**A.** > 100 µM

**Q.** What about the TGI (SNB-19 CNS) of the same molecule?
**A.** > 100 µM

**Q.** What about the TGI (SR leukemia) of the same molecule?
**A.** > 100 µM

**Q.** What about the TGI (TK-10 renal) of the same molecule?
**A.** > 100 µM

**Q.** What about the TGI (OVCAR-8 ovarian) of the same molecule?
**A.** > 100 µM

**Q.** What about the TGI (UO-31 renal) of the same molecule?
**A.** > 100 µM

**Q.** And the TGI (OVCAR-4 ovarian)?
**A.** > 100 µM

**Q.** And the TGI (NCI-H460 lung)?
**A.** > 100 µM

**Q.** And the TGI (COLO 205 colon)?
**A.** > 100 µM

**Q.** And the TGI (UACC-257 melanoma)?
**A.** > 100 µM

**Q.** And the TGI (NCI-H23 lung)?
**A.** > 100 µM

**Q.** And the TGI (786-0 renal)?
**A.** > 100 µM

**Q.** What about the TGI (SF-268 CNS) of the same molecule?
**A.** > 100 µM

**Q.** What about the TGI (MDA-N) of the same molecule?
**A.** > 100 µM

**Q.** And the TGI (KM12 colon)?
**A.** > 100 µM

**Q.** What about the TGI (MOLT-4 leukemia) of the same molecule?
**A.** > 100 µM

**Q.** And the TGI (SK-MEL-5 melanoma)?
**A.** > 100 µM

**Q.** What about the TGI (IGROV1 ovarian) of the same molecule?
**A.** > 100 µM

**Q.** And the TGI (OVCAR-5 ovarian)?
**A.** > 100 µM

**Q.** What about the TGI (NCI-H226 lung) of the same molecule?
**A.** > 100 µM

**Q.** And the TGI (HOP-62 NSCLC)?
**A.** > 100 µM

**Q.** And the TGI (SN12C renal)?
**A.** > 100 µM

**Q.** What about the TGI (OVCAR-3 ovarian) of the same molecule?
**A.** > 100 µM

**Q.** What about the TGI (EKVX NSCLC) of the same molecule?
**A.** > 100 µM

**Q.** And the TGI (UACC-62 melanoma)?
**A.** > 100 µM

**Q.** And the TGI (DU-145 prostate)?
**A.** > 100 µM

**Q.** What does the source list for `COC1/C=C\OC2(C)Oc3c(C)c(O)c4c(O)c(c(CN(C)C)c(O)c4c3C2=O)NC(=O)/C(C)=C\C=C/C(C)C(O)C(C)C(O)C(C)C(OC(C)=O)C1C` (stereo not given)?
**A.** TGI (RXF 393 renal): > 100 µM; TGI (BT-549 breast): > 100 µM; TGI (HS 578T breast): > 100 µM; TGI (CAKI-1 renal): > 100 µM; TGI (NCI-H522 lung): 32.1 µM; TGI (M14 melanoma): 42.1 µM; TGI (PC-3 prostate): 72 µM; TGI (MALME-3M melanoma): 39.3 µM; TGI (MDA-MB-231 breast): 92.8 µM; TGI (LOX IMVI melanoma): 35 µM; TGI (MDA-MB-435): 78.6 µM; TGI (SF-539 CNS): 45.5 µM; TGI (HT29 colon): 54.4 µM; TGI (T-47D breast): > 100 µM; TGI (SW-620 colon): 75.6 µM; TGI (A498 renal): > 100 µM; TGI (ACHN renal): > 100 µM; TGI (HL-60(TB) leukemia): 50.8 µM; TGI (SK-OV-3 ovarian): > 100 µM; TGI (HOP-92 NSCLC): > 100 µM; TGI (MCF7 breast): 34.8 µM; TGI (SNB-75 CNS): > 100 µM; TGI (RPMI-8226 leukemia): 40 µM; TGI (SK-MEL-2 melanoma): 42.5 µM; TGI (HCT-15 colon): > 100 µM; TGI (SF-295 CNS): > 100 µM; TGI (SK-MEL-28 melanoma): 97.5 µM; TGI (U251 CNS): 42.6 µM; TGI (HCT-116 colon): 37.9 µM; TGI (NCI/ADR-RES ovarian): > 100 µM; TGI (HCC-2998 colon): 55.8 µM; TGI (A549 NSCLC): > 100 µM; TGI (K-562 leukemia): 85.2 µM; TGI (SNB-19 CNS): > 100 µM; TGI (SR leukemia): 43.1 µM; TGI (TK-10 renal): > 100 µM; TGI (OVCAR-8 ovarian): > 100 µM; TGI (UO-31 renal): > 100 µM; TGI (OVCAR-4 ovarian): > 100 µM; TGI (NCI-H460 lung): > 100 µM; TGI (COLO 205 colon): 35.4 µM; TGI (UACC-257 melanoma): 60.9 µM; TGI (NCI-H23 lung): 31.3 µM; TGI (786-0 renal): > 100 µM; TGI (SF-268 CNS): > 100 µM; TGI (MDA-N): > 100 µM; TGI (KM12 colon): 99.6 µM; TGI (MOLT-4 leukemia): 38.9 µM; TGI (SK-MEL-5 melanoma): 36.8 µM; TGI (IGROV1 ovarian): > 100 µM; TGI (OVCAR-5 ovarian): > 100 µM; TGI (NCI-H226 lung): > 100 µM; TGI (HOP-62 NSCLC): > 100 µM; TGI (SN12C renal): 83.8 µM; TGI (OVCAR-3 ovarian): > 100 µM; TGI (EKVX NSCLC): 61.4 µM; TGI (UACC-62 melanoma): 41.2 µM; TGI (DU-145 prostate): > 100 µM
